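1) Cells in 96-well plates. 2) Compound, 48 h, 5 concentrations. 3) Linear interpolation between surrounding doses. 4) Unreached endpoint = highest concentration. At the GI50, growth is halved. The concentration for full growth arrest is given as TGI.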
Experiments:
Experiment in all cases: DTP human tumour cell line panel, 48 h
COLO 205 colon = tested on: COLO 205 colon
HOP-92 NSCLC = tested on: HOP-92 NSCLC
IGROV1 ovarian = tested on: IGROV1 ovarian
KM12 colon = tested on: KM12 colon
OVCAR-3 ovarian = tested on: OVCAR-3 ovarian
RXF 393 renal = tested on: RXF 393 renal
SN12C renal = tested on: SN12C renal
UO-31 renal = tested on: UO-31 renal
CCRF-CEM leukemia = tested on: CCRF-CEM leukemia
HS 578T breast = tested on: HS 578T breast

Row | SMILES | TGI (COLO 205 colon) [µM] | TGI (HOP-92 NSCLC) [µM] | TGI (IGROV1 ovarian) [µM] | TGI (KM12 colon) [µM] | TGI (OVCAR-3 ovarian) [µM] | TGI (RXF 393 renal) [µM] | TGI (SN12C renal) [µM] | TGI (UO-31 renal) [µM] | TGI (CCRF-CEM leukemia) [µM] | TGI (HS 578T breast) [µM] | GI50 (HOP-92 NSCLC) [µM] | GI50 (HS 578T breast) [µM] | GI50 (IGROV1 ovarian) [µM] | GI50 (KM12 colon) [µM] | GI50 (OVCAR-3 ovarian) [µM] | GI50 (RXF 393 renal) [µM] | GI50 (SN12C renal) [µM] | GI50 (UO-31 renal) [µM] | GI50 (CCRF-CEM leukemia) [µM] | GI50 (COLO 205 colon) [µM]
1 | N#Cc1c([N+](=O)[O-])cc(C(F)(F)F)cc1[N+](=O)[O-] | 14.8 | 4.01 | 20.8 | 12.4 | 30.9 | 6.62 | 27.3 | 33.5 | – | – | – | – | – | – | – | – | – | – | – | –
2 | CC(=O)OC1COC(N2C(=O)C(=O)c3c(C)cc(Cl)nc32)C(OC(C)=O)C1OC(C)=O (stereo unspecified) | > 100 | > 100 | > 100 | > 100 | > 100 | > 100 | > 100 | > 100 | > 100 | – | – | – | – | – | – | – | – | – | – | –
3 | C[N+](C)(C)CC(=O)N/N=C(/C=C/c1ccccc1)CC1OC(=O)c2ccccc21 (stereo unspecified) | > 100 | > 10 | > 100 | > 100 | – | > 100 | > 100 | > 100 | > 100 | – | – | – | – | – | – | – | – | – | – | –
4 | CCCCC1(N=[N+]=[N-])C(=O)c2cccc3c2N(CCC3)C1=O (stereo unspecified) | > 100 | > 100 | > 100 | > 100 | > 100 | > 100 | > 100 | – | > 100 | > 100 | – | – | – | – | – | – | – | – | – | –
5 | O=C(c1ccccc1)c1nnn(Cc2cccc(Cl)c2)c1C(=O)c1ccccc1 | 38.8 | > 100 | > 100 | > 100 | > 100 | > 100 | – | > 100 | > 100 | – | – | – | – | – | – | – | – | – | – | –
6 | [N-]=[N+]=Nc1ccc(S(=O)(=O)Oc2cc(OS(=O)(=O)c3ccc(N=[N+]=[N-])cc3)cc(OS(=O)(=O)c3ccc(N=[N+]=[N-])cc3)c2)cc1 | > 10 | > 100 | > 100 | > 100 | > 100 | > 100 | > 10 | > 100 | > 100 | – | – | – | – | – | – | – | – | – | – | –
7 | CCN(CC)CCN(C)CC(C)(C)C(=O)/C=C/c1ccccc1 | 26.6 | 18.1 | 36.5 | 25.4 | 26.2 | – | 22.7 | 26.2 | 38.4 | – | – | – | – | – | – | – | – | – | – | –
8 | C=CCCc1cc(OC)ccc1CN(C)C(C)(C)CO | > 100 | > 100 | > 100 | > 100 | > 100 | > 100 | > 100 | – | > 100 | – | – | – | – | – | – | – | – | – | – | –
9 | CCc1nc(N)nc(N)c1-c1ccc(Cl)cc1 | > 100 | > 100 | > 100 | > 100 | > 100 | > 100 | > 100 | > 100 | – | > 100 | 17.4 | > 100 | 11.4 | 16.1 | 36.3 | 22.6 | 5.04 | 14.5 | – | –
10 | CN1CCC(O)C(CNC23CC4CC(CC(C4)C2)C3)C1 (stereo unspecified) | > 100 | > 100 | – | > 100 | – | > 100 | > 100 | > 100 | > 100 | – | – | – | – | – | – | – | – | – | – | –
11 | Cc1c(C(=O)/C=C/c2ccco2)[n+](=O)c2ccccc2n1[O-] | > 100 | > 100 | > 100 | > 100 | > 100 | > 100 | > 100 | > 100 | > 100 | – | – | – | – | – | – | – | – | – | – | –
12 | CC/C(=C(\c1ccccc1)c1ccc(OCCN(C)C)cc1)c1ccccc1 | – | – | – | – | – | – | – | – | – | – | 1.43 | – | 4.44 | 2.55 | 2.84 | 1.39 | 3.34 | 5.73 | 2.33 | 0.892
13 | CCN(CC)CCn1c(=N)n(CC(O)c2ccc(Cl)c(Cl)c2)c2ccccc21 (stereo unspecified) | 3.96 | 13.1 | 20.6 | 22.2 | 24 | 10.9 | 24.2 | 20.4 | – | 21.2 | 2.73 | 4.25 | 5.87 | 9.86 | 11.5 | 2.8 | 8.79 | 6.97 | – | 2.05
14 | COc1ccc(NC(=O)c2ccc(NC3=C(Cl)C(=O)N(Cc4ccccc4)C3=O)cc2)cc1 | > 100 | 13.8 | 3.93 | 38.2 | 6.12 | 14.6 | 30.2 | 11.3 | – | 62.9 | 3.63 | 15 | 1.5 | 16.8 | 2.11 | 3.21 | 14.4 | 2.66 | – | 10.9
15 | CC(C)c1ccc2c(c1)CCC1C(C)(C)[C@@H](O)CC[C@]21C (stereo partly specified) | 32.9 | 52.8 | > 100 | 71.5 | > 100 | 54.3 | 40.2 | > 100 | > 100 | – | – | – | – | – | – | – | – | – | – | –
16 | CC(=O)NNc1nc(C)c(C(/C=C/c2ccc(/C=C/C(=N\NC(=O)c3ccncc3)c3sc(NNC(C)=O)nc3C)cc2)=N/NC(=O)c2ccncc2)s1 | > 100 | > 100 | > 100 | > 100 | > 100 | > 100 | > 100 | > 100 | > 100 | – | – | – | – | – | – | – | – | – | – | –
17 | CCCCNC(=S)Nn1c(-c2ccccc2)nc2ccccc2c1=O | > 100 | > 100 | > 100 | > 100 | – | > 100 | > 100 | > 100 | > 100 | – | – | – | – | – | – | – | – | – | – | –
18 | COc1ccc(C(=O)O/N=C2\CCCC\C2=C/c2ccccc2)cc1 | > 100 | – | > 100 | – | – | – | > 100 | > 100 | > 100 | – | – | – | – | – | – | – | – | – | – | –
19 | O=c1[nH]nc(-c2ccccc2)c(-c2ccccc2)c1-n1nc(-c2ccccc2)c2ccccc2c1=O | > 100 | > 100 | > 100 | > 100 | > 100 | – | > 100 | > 100 | > 100 | – | – | – | – | – | – | – | – | – | – | –
20 | CN(C)C1(C#N)CCC2(CC1)OCCO2 | > 100 | > 100 | > 100 | > 100 | > 100 | > 100 | > 100 | > 100 | > 100 | – | – | – | – | – | – | – | – | – | – | –
21 | C=C1C(=O)OC2C1C(OC(=O)/C(=C/C)COC(C)=O)CC1(CO1)C1C(OC(=O)/C(=C/C)CO)C=C(C)C21 (stereo unspecified) | 2.3 | – | 3.82 | 15.3 | 12.2 | 2.31 | 3.81 | 11.2 | 2.13 | – | – | – | – | – | – | – | – | – | – | –

— PubChem BioAssay (NCI)
